The record followed here is ChEMBL document CHEMBL5506041, “Identification of 1,3,4-Thiadiazolyl-Containing Thiazolidine-2,4-dione Derivatives as Novel PTP1B Inhibitors with Antidiabetic Activity” (J Med Chem, 2024).

The source made the active and inactive calls. No cut-off for these calls is given here.

Data set [1] concerns the target T1, Tyrosine-protein phosphatase non-receptor type 1 (Homo sapiens, UniProt P18031).
T1 sequence (P18031 whole entry): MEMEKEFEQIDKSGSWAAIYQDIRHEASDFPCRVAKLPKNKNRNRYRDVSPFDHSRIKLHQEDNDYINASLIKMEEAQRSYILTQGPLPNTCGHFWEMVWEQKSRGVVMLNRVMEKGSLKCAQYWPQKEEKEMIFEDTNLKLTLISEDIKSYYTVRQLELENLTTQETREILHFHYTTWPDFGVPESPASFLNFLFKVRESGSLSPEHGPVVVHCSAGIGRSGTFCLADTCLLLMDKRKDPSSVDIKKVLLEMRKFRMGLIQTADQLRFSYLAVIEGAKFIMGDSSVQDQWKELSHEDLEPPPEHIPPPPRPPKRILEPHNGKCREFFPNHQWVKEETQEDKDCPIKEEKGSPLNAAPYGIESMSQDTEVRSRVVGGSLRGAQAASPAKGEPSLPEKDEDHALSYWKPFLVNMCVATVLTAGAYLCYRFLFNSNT
In words: Inhibition of PTP1B (unknown origin) using DiFMUP as substrate incubated for 10 mins by fluorescence based analysis.

Data set [2] addresses T2, Tyrosine-protein phosphatase non-receptor type 1 (Homo sapiens) (UniProt P18031).
T2 sequence (whole entry): T1 sequence (P18031 whole entry)
In words: Reversible inhibition of PTP1B1 (unknown origin) upto 1 uM by Lineweaver-burk plot analysis.

Another data set concerns L02. In words: Cytotoxicity activity against human L02 cells upto 32 uM by MTT assay. The class given is toxicity, cell-based. The note with it: l02, 32 µM. In general terms: Tetrazolium dyes change colour on reduction, which living cells bring about.
Data set [3] has as its system Mus musculus. In words: Anti-diabetic activity in streptozotocin-induced C57/6J mouse model assessed as reduction in fasted blood glucose level at 50 mg/kg, ip preadministered with compound for 3 weeks followed by fasting for 12 hrs and measured after 120 mins post glucose administration by OGTT analysis. The data set is classed as functional, organism-based. The note with it: time 518.0 hrs.

Data set [4] relates to HepG2. In words: Inhibition of insulin resistance in palmitic acid-induced human HepG2 cells assessed as upregulation of AKT expression incubated for 24 hrs followed by insulin addition for 10 mins. The class given is functional, cell-based. The conditions noted are these: dose 2-20 µM.
In data set [5] the test system is Mus musculus. In words: Anti-diabetic activity in streptozotocin-induced C57/6J mouse model assessed as reduction in total cholesterol level in serum at 25 to 50 mg/kg, ip administered for 4 weeks. The class given is functional, organism-based. The conditions noted are these: dose 25-50 mg/kg.
Data set [6] concerns Mus musculus. As to the kind of experiment: Hypoglycemic activity in streptozotocin-induced C57/6J mouse model assessed as reduction in fasting blood glucose level at 25 to 50 mg/kg, ip administered once a week and fasted for 12 hrs. The data set is classed as functional, organism-based. The note with it: dose 25-50 mg/kg.
The next data set has as its system HEK293. As to the kind of experiment: Cytotoxicity activity against HEK293 cells upto 32 uM by MTT assay. The data set is classed as toxicity, cell-based. The conditions noted are these: human, hek293, 32 µM.
In data set [7] the test system is HepG2. As to the kind of experiment: Inhibition of insulin resistance in palmitic acid-induced human HepG2 cells assessed as upregulation of IRS1 expression incubated for 24 hrs followed by insulin addition for 10 mins. The data set is classed as functional, cell-based. The note with it: dose 2-20 µM.
In data set [8] the target is T2, Tyrosine-protein phosphatase non-receptor type 1 (Homo sapiens). In words: Noncompetitive inhibition of PTP1B1 (unknown origin) upto 1 uM by Lineweaver-burk plot analysis.
For data set [9], the system named is Mus musculus. As to the kind of experiment: Anti-diabetic activity in streptozotocin-induced C57/6J mouse model assessed as reduction in triglyceride level in serum at 25 to 50 mg/kg, ip administered for 4 weeks. The data set is classed as functional, organism-based. The conditions noted are these: dose 25-50 mg/kg.
The target in data set [10] is T2, Tyrosine-protein phosphatase non-receptor type 1 (Homo sapiens). As to the kind of experiment: Potency index, ratio of lithocholic acid IC50 to test compound IC50 for inhibition of PTP1B (unknown origin) using DiFMUP as substrate incubated for 10 mins by fluorescence based analysis.
Data set [11] concerns Mus musculus. In words: Hypoglycemic activity in streptozotocin-induced C57/6J mouse model assessed as reduction in fasting blood glucose level at 50 mg/kg, ip administered once a week and fasted for 12 hrs. The data set is classed as functional, organism-based.

By IC50 is commonly meant the midpoint of a concentration-inhibition curve. Low values mean higher potency, high ones lower potency.

For the molecule `C[C@H](CCC(=O)O)[C@H]1CC[C@H]2[C@@H]3CC[C@@H]4C[C@H](O)CC[C@]4(C)[C@H]3CC[C@]12C` [LITHOCHOLIC ACID], the half-maximal inhibitory concentration (IC50) in [1] turned out to be 9620 nM. The molecule `O=C1NC(=O)/C(=C\c2ccc(C(=O)Nc3nnc(SCc4ccccc4Br)s3)cc2)S1` came in with an IC50 in [1] of 1870 nM. On the same count and under the same terms, to `O=C1NC(=O)/C(=C\c2ccc(C(=O)Nc3nnc(SCc4cccc(Br)c4)s3)cc2)S1` belongs 890 nM; to `CC(C)(C)c1ccc(CSc2nnc(NC(=O)c3ccc(/C=C4\SC(=O)NC4=O)cc3)s2)cc1`, 1350 nM. On the same count and under the same terms, in the case of `O=C1NC(=O)/C(=C\c2ccc(C(=O)Nc3nnc(SCc4cccc([N+](=O)[O-])c4)s3)cc2)S1` it was 3760 nM. On to `N#Cc1ccc(CSc2nnc(NC(=O)c3ccc(/C=C4/SC(=O)NC4=O)cc3)s2)cc1`, for which the inhibition entry in data set [2] and in data set [8] was “Active” in each case. The half-inhibitory concentration (IC50) in [1] came out at 410 nM. In addition, the Activity result in the data set on L02 and in the data set on HEK293 was “Non-Toxic” each time. The result in the data set on Mus musculus [3], in the data set on Mus musculus [5], in the data set on Mus musculus [6] and in the data set with Mus musculus [9] was Active. In addition, the inhibition result with HepG2 [4] and in the data set on HepG2 [7] was “Dose-Dependent Effect” each time. In addition, the Ratio IC50 in data set [10] was 23.5. `COC(=O)c1ccccc1CSc1nnc(NC(=O)c2ccc(/C=C3/SC(=O)NC3=O)cc2)s1` returned an IC50 in data set [1] of 1210 nM. The same measure, in the same setting: in the case of `O=C1NC(=O)/C(=C\c2ccc(C(=O)Nc3nnc(SCc4ccccc4Cl)s3)cc2)S1` it was 2910 nM. Regarding `O=C1NC(=O)/C(=C\c2ccc(C(=O)Nc3nnc(SCc4ccc(OC(F)(F)F)cc4)s3)cc2)S1`, 890 nM corresponded to half-maximal inhibition in data set [1] (IC50).

`COC(=O)c1ccc(CSc2nnc(NC(=O)c3ccc(/C=C4/SC(=O)NC4=O)cc3)s2)cc1` came in with a half-maximal inhibitory concentration (IC50) in data set [1] of 650 nM. Same read-out and setting: in the case of `O=C1NC(=O)/C(=C\c2ccc(C(=O)Nc3nnc(SCc4ccccc4-c4ccccc4)s3)cc2)S1` it was 3560 nM; in that of `O=C1NC(=O)/C(=C/c2ccc(C(=O)Nc3nnc(SCc4ccc(F)cc4F)s3)cc2)S1`, 1240 nM. Still for that read-out and setting: in the case of `Cc1ccccc1CSc1nnc(NC(=O)c2ccc(/C=C3/SC(=O)NC3=O)cc2)s1` it was 4680 nM; in that of `N#Cc1cccc(CSc2nnc(NC(=O)c3ccc(/C=C4/SC(=O)NC4=O)cc3)s2)c1`, 610 nM. Same read-out and setting: to `O=C1NC(=O)/C(=C/c2ccc(C(=O)Nc3nnc(SCc4ccc5ccccc5c4)s3)cc2)S1` belongs 3770 nM; to `O=C1NC(=O)/C(=C/c2ccc(C(=O)Nc3nnc(SCc4ccc(F)c(F)c4F)s3)cc2)S1`, 1130 nM; to `O=C1NC(=O)/C(=C\c2ccc(C(=O)Nc3nnc(SCc4ccccc4C(F)(F)F)s3)cc2)S1`, 1180 nM. As to `O=C1NC(=O)/C(=C/c2ccc(C(=O)Nc3nnc(SCc4ccc5ncccc5c4)s3)cc2)S1`, the concentration for half-maximal inhibition (IC50) in data set [1] amounted to 980 nM. In data set [1], `N#Cc1ccccc1CSc1nnc(NC(=O)c2ccc(/C=C3/SC(=O)NC3=O)cc2)s1` returned an IC50 of 2170 nM. For `Cc1cccc(CSc2nnc(NC(=O)c3ccc(/C=C4/SC(=O)NC4=O)cc3)s2)c1`, the midpoint of inhibition in data set [1], the IC50, lay at 3850 nM. In the case of `O=C1NC(=O)/C(=C/c2ccc(C(=O)Nc3nnc(SCc4ccc(F)c(F)c4)s3)cc2)S1`, the IC50 in data set [1] came out at 750 nM.

Take `O=C1NC(=O)/C(=C/c2ccc(C(=O)Nc3nnc(SCc4ccc(F)cc4Cl)s3)cc2)S1`: the IC50 in [1] stood at 1070 nM. Regarding `O=C1NC(=O)/C(=C\c2ccc(C(=O)Nc3nnc(SCc4cccc(OC(F)(F)F)c4)s3)cc2)S1`, the half-inhibitory concentration (IC50) in [1] amounted to 1480 nM. On the same count and under the same terms, to `O=C1NC(=O)/C(=C/c2ccc(C(=O)Nc3nnc(SCc4ccc(-c5ccccc5)cc4)s3)cc2)S1` belongs 1470 nM. `C[C@H]1O[C@H](O[C@H]2[C@H](O)[C@@H](O)[C@@H](O[C@H]3[C@H](O)[C@@H](O)C(O)O[C@@H]3CO)O[C@@H]2CO)[C@H](O)[C@@H](O)[C@@H]1N[C@H]1C=C(CO)[C@@H](O)[C@H](O)[C@H]1O` (some centres undefined): in the data set with Mus musculus [11], the outcome was Active. For `COC(=O)c1cccc(CSc2nnc(NC(=O)c3ccc(/C=C4/SC(=O)NC4=O)cc3)s2)c1`, it took 1120 nM to reach half-maximal inhibition in data set [1] (IC50). Take `O=C1NC(=O)/C(=C\c2ccc(C(=O)Nc3nnc(SCc4cccc(F)c4)s3)cc2)S1`: in data set [1], the concentration for half-maximal inhibition (IC50) stood at 2080 nM. The same measure, in the same setting: in the case of `O=C1NC(=O)/C(=C\c2ccc(C(=O)Nc3nnc(SCc4cccc(Cl)c4)s3)cc2)S1` it was 1640 nM; in that of `O=C1NC(=O)/C(=C\c2ccc(C(=O)Nc3nnc(SCc4ccccc4)s3)cc2)S1`, 1270 nM. `O=C1NC(=O)/C(=C/c2ccc(C(=O)Nc3nnc(SCc4cc(C(F)(F)F)cc(C(F)(F)F)c4)s3)cc2)S1` displayed a half-inhibitory concentration (IC50) in data set [1] of 1730 nM. In data set [1], `O=C1NC(=O)/C(=C\c2ccc(C(=O)Nc3nnc(SCc4ccc(Br)cc4)s3)cc2)S1` gave an IC50 of 590 nM. The same measure, in the same setting: to `O=C1NC(=O)/C(=C/c2ccc(C(=O)Nc3nnc(SCc4ccc(F)c(Cl)c4)s3)cc2)S1` belongs 820 nM.

As to `O=C1NC(=O)/C(=C\c2ccc(C(=O)Nc3nnc(SCc4cccc(C(F)(F)F)c4)s3)cc2)S1`, the IC50 in [1] is 1070 nM.

Molecule `O=C1NC(=O)/C(=C\c2ccc(C(=O)Nc3nnc(SCc4ccc(Cl)cc4)s3)cc2)S1` came in with an IC50 in data set [1] of 1390 nM. On the same count and under the same terms, to `O=C1NC(=O)/C(=C\c2ccc(C(=O)Nc3nnc(SCc4ccc(F)cc4)s3)cc2)S1` belongs 1840 nM; to `O=C1NC(=O)/C(=C\c2ccc(C(=O)Nc3nnc(SCc4ccc([N+](=O)[O-])cc4)s3)cc2)S1`, 1820 nM; to `O=C1NC(=O)/C(=C\c2ccc(C(=O)Nc3nnc(SCc4ccccc4F)s3)cc2)S1`, 1850 nM. Still for that read-out and setting: in the case of `CS(=O)(=O)c1ccc(CSc2nnc(NC(=O)c3ccc(/C=C4\SC(=O)NC4=O)cc3)s2)cc1` it was 1410 nM; in that of `O=C1NC(=O)/C(=C\c2ccc(C(=O)Nc3nnc(SCc4ccccc4[N+](=O)[O-])s3)cc2)S1`, 4090 nM; in that of `O=C1NC(=O)/C(=C\c2ccc(C(=O)Nc3nnc(SCc4ccccc4OC(F)(F)F)s3)cc2)S1`, 1320 nM.

For `COc1cccc(CSc2nnc(NC(=O)c3ccc(/C=C4/SC(=O)NC4=O)cc3)s2)c1`, in data set [1], the IC50 was determined as 3220 nM. Consider `O=C1NC(=O)/C(=C/c2ccc(C(=O)Nc3nnc(SCc4ccc(C(F)(F)F)cc4)s3)cc2)S1`, for which, in [1], half-maximal inhibition (IC50) was put at 910 nM. Still for that read-out and setting: to `Cc1ccc(CSc2nnc(NC(=O)c3ccc(/C=C4/SC(=O)NC4=O)cc3)s2)cc1` belongs 880 nM.
